Like-named read-outs stand apart in the source and are kept apart here.
Tests used:
[1] = Fluorescence and UV absorbance properties of the dyes in phosphate buffers of different pH, pKa from emission intensity ratio I/Io; settings: for λmax pH 5.00 / λmaxpH 10.00: UV absorbance maximum; for λmax pH 5.00 / λmaxpH 10.00 / λEm(nm): phosphate buffer; for λmaxpH 10.00: pH 10.00; for λEm(nm): fluorescence emission maximum; for pKa: phosphate buffers, pH 5.85
Procedure: (§1) The pKa was measured as the ratio of emission intensity at the pH measured and the emission intensity for maximum emission, or I/Io. […] The pKa can be calculated to be where I/Io = 0.5 or where the fluorescent probe is 50% protonated.

[2] = phosphate buffer, pH 5.85
Procedure: as §1

[3] = cited from earlier work; for pKa: product literature value, may be different in a cellular environment

Structure (SMILES) | λmax pH 5.00 [1] [nm] | λmaxpH 10.00 [1] [nm] | λEm(nm) [1] [nm] | pKa [2] | pKa [1] | solubility in DMSO [3] | pKa [3]
CC[N+]1=C(/C=C/C=C/C=C2Nc3ccc(CC(=O)O)cc3C2(C)C)C(C)(C)c2cc(S(=O)(=O)[O-])ccc21 [Compound 5] | 650 | 484 | 665 | 7.5 |  |  | 
CC1(C)/C(=C\C=C\c2sc3ccccc3[n+]2CCCCS(=O)(=O)O)Nc2ccc(CC(=O)O)cc21 [Compound 6] | 552 | 433 | 580 |  | 9.8 |  | 
CN(C)Cc1c2ccccc2c(CN(C)C)c2ccccc12 [LYSOSENSOR BLUE DND-192] |  |  |  |  |  | soluble | 7.5
C[N+]1=C(/C=C/C=C/C=C2/Nc3ccc(S(=O)(=O)O)cc3C2(C)C)C(C)(C)c2cc(CN)ccc21 [Compound 8] | 650 | 531 | 665 |  | 7.25 |  | 
CN(C)CCNc1ccc2c3c1cccc3c(=O)n1c3ccccc3nc21 [LYSOSENSOR GREEN DND-153] |  |  |  |  |  | soluble | 7.5
CC1(C)C(=C/C=C/C=C/C2=[N+](CCCCCC(=O)NN)c3ccc(S(=O)(=O)[O-])cc3C2(C)C)Nc2ccc(S(=O)(=O)O)cc21 [Compound 10] | 653 | 501 | 660 | 7.5 |  |  | 
CC1(C)C(/C=C/C=C/C=C2Nc3ccc4c(S(=O)(=O)O)cc(S(=O)(=O)O)cc4c3C2(C)C)=[N+](CCCCCC(=O)O)c2ccc(S(=O)(=O)[O-])cc21 [Compound 9] | 655 | 522 | 680 | 7.25 |  |  | 
CC1(C)C(=C/C=C/C=C/C2=[N+](CCCCS(=O)(=O)[O-])c3ccc(CC(=O)O)cc3C2(C)C)Nc2ccc(S(=O)(=O)O)cc21 [Compound 4] | 650 | 515 | 665 | 6.4 |  |  | 
O=c1c2cccc3c(NCCN4CCOCC4)ccc(c32)c2nc3ccccc3n12 [LYSOSENSOR GREEN DND-189] |  |  |  |  |  | soluble | 5.2
CC1(C)C(=CC=CC2=[N+](CCCCCC(=O)O)c3ccc(S(=O)(=O)[O-])cc3C2(C)C)Nc2ccc(S(=O)(=O)O)cc21 [Compound 3.39] | 550 | 476 | 565 | 7.75 |  |  | 
CC1(C)\C(=C/C=C/C=C/c2sc3ccccc3[n+]2CCCCCC(=O)O)Nc2ccc(S(=O)(=O)O)cc21 [Compound 7] | 640 | 531 | 670 |  | 6.85 |  | 
c1ccc2c(CN3CCOCC3)c3ccccc3c(CN3CCOCC3)c2c1 [LYSOSENSOR BLUE DND-167] |  |  |  |  |  | soluble | 5.1
